# Measured values from publication PMC12010006, “Subnanomolar MAS-related G protein-coupled receptor-X2/B2 antagonists with efficacy in human mast cells and disease models” (Signal Transduction and Targeted Therapy, 2025).
# Tests used:
# MRGPRX2 [1] = molecular target: T1, MRGPRX2 (Homo sapiens, UniProt Q96LB1); assay: β-arrestin recruitment assay (antagonist mode), β-arrestin-CHO cells recombinantly expressing MRGPRX2; assay type: cell-based; set-up: expressed in transfected cells; details: for Ki: versus CST-14 (EC80 1,000 nM, EC50 483 nM), Cheng-Prusoff, read-out: β-Arrestin assay Ki ± SEM
# T1 sequence (Q96LB1 1-330): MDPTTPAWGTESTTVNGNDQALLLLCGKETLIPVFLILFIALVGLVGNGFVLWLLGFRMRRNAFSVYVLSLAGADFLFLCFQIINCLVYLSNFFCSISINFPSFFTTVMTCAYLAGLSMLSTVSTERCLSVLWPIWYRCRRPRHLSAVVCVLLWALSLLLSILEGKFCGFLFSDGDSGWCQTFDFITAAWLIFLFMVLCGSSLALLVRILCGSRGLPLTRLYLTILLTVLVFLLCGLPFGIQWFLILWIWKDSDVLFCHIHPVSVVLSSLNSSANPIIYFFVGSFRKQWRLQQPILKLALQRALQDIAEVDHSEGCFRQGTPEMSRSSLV
# MRGPRX2 [2] = molecular target: T1, MRGPRX2; assay: β-arrestin assay (agonist mode), β-arrestin CHO cells recombinantly expressing MRGPRX2; assay type: cell-based; details: for EC50: agonist test, read-out: β-Arrestin assay EC50 ± SEM; for β-Arrestin assay % activation: normalized to CST-14 (EC80 5,000 nM)
# From the text: Eurofins DiscoverX (Fremont, CA, USA) provided engineered Chinese hamster ovary (CHO) cells stably expressing β-arrestin-2 fused to a large β-galactosidase fragment (enzyme acceptor, EA). These CHO-K1-β-arrestin-2 cells were commercially available (93-0164). CHO-K1-β-arrestin-2 cells that additionally expressed MRGPRX1, -2, or -4 fused to the fragment ProLink™ (PK) were also purchased from the same company (93-0919C2, 93-0309C2, and 3-0541C2A, respectively). CHO cells expressing MRGPRX3 were generated as previously […].[31] The cells were grown in F-12 Ham Nutrient Mixture (Life Technologies) supplemented with 10% FBS, 100 U/mL of penicillin, 100 µg/mL of streptomycin (PAN-Biotech), 300 μg/mL of hygromycin B (PAN-Biotech), and 800 μg/mL of gentamicin (PAN-Biotech) at 37 °C and 5% CO2.).
# The assays were carried out as previously described.[22] […] After 30 min of incubation at 37 °C and 5% CO2, Cortistatin-14 (CST-14, Bioscience, Bristol, United Kingdom) or another MRGPRX2 agonist that served as a standard agonist was added, and the mixture was incubated for 90 min at 37 °C and 5% CO2. Next, a detection reagent (50 µL, DiscoverX) was added, and the mixture was incubated at room temperature in the dark for 60 min. Chemiluminescence was measured on a Mithras LB 940 plate reader (Berthold Technologies, Bad Wildbad, Germany). The results represent means ± SEM of three to five independent experiments, each in duplicates.
# ^d β-Arrestin CHO cells recombinantly expressing MRGPRX2
# ^f Percentage of activation of normalized to CST-14 (EC80 5,000 nM)
# MRGPRX2 [3] = molecular target: T1, MRGPRX2; assay: Ca2+ mobilization assay, LN229 cells overexpressing MRGPRX2; assay type: cell-based; set-up: expressed in transfected cells; host or cells: LN229 human glioblastoma cells; plasmid pLXSN-MRGPRX2 (Addgene #213960); details: for Ki: versus CST-14 (EC80 800 nM, EC50 452 nM), Cheng-Prusoff, read-out: Ca2+ assay Ki ± SEM; for MRGPRX2 antagonistic potency in Ca2+ assay, in words: versus CST-14
# Protocol: Glioblastoma LN229-MRGPRX2 stably expressing MRGPRX2 (produced by retroviral transfection) were seeded into black sterile 96-well microplates at a density of 5 × 10^4 cells/well in 200 µL of DMEM/F12-Nut Mix medium, supplemented with 10% FCS, 100 U/mL of penicillin 100 µg/mL of streptomycin, and 200 µg/mL of G418 and incubated for 18–22 h.
# The next day Fluo-4 AM Solution (1 mM) (Thermo Fisher Scientific) was prepared and used to prepare cell loading dye solution consisting of 4970 µL of Hank’s Buffered Saline Solution (HBSS) buffer, 15 µL of 20% Pluronic-F and 15 µL of 1 mM Fluo-4 AM. Next, the cell medium was removed and exchanged for 40 µL of dye solution per well (final concentration of Fluo-4 AM: 3 µM). The cell plate was incubated for 60 min in the dark at room temperature, then the dye solution was removed and replaced by 189 µL HBSS. Subsequently, 1 µL of antagonist diluted in DMSO was added and incubated for 30 min at room temperature and in the dark (final DMSO concentration 0.5%, v/v). CST-14 or another agonist prepared in HBSS as well as carbachol (final concentration 100 µM) were pipetted (10 µL) using a FlexStation® 3 Multi-Mode Microplate Reader. For the determination of baseline fluorescence, HBSS buffer containing solvent of the investigated compound was used. Fluorescence was measured for 120 intervals of 1 s (number of flashes: 10) at a wavelength of 525 nm (excitation 485 nm) using the SoftMax® Pro5.1 Microplate Data Acquisition & Analysis Software. Three independent experiments were performed in duplicates. Measurements are provided in relative fluorescence units and normalized to the maximal effect of CST-14.
# [4] = Metabolic stability in human liver microsomes; assay type: in vitro ADME; details: both sexes, human liver microsomes 0.25 mg/ml, compound 1 µM
SMILES,Ki (MRGPRX2 [1]) [nM],EC50 (MRGPRX2 [2]) [nM],β-Arrestin assay % activation (MRGPRX2 [2]) [%],Ki (MRGPRX2 [3]) [nM],"MRGPRX2 antagonistic potency in Ca2+ assay, in words (MRGPRX2 [3])",also measured
CC(C)c1cc(=O)n2c3ccccc3n(C)c2n1 [Compound 21],,> 10000,-1,,not tolerated,
CCc1c(C(C)C)[nH]c2nc3cc(Cl)c(Cl)cc3n2c1=O [Compound 25],155 ± 56.6,> 10000,1,2.98,,
CCc1c(C(C)C)[nH]c2nc3ccccc3n2c1=O [Compound 10],94.4 ± 63.8,> 10000,-1,0.895,subnanomolar potencies,fold increase in potency compared to hit compound 1 (MRGPRX2 [3]): 275 fold
CC(C)c1cc(=O)n2c(nc3ccccc32)[nH]1 [Compound 7],1050,> 10000,0,4260,,
CCc1c(CC(C)C)[nH]c2nc3ccccc3n2c1=O [Compound 12],152 ± 33.8,> 10000,-2,18.5 ± 13.7,,
CCc1c(C2CC2)[nH]c2nc3ccccc3n2c1=O [Compound 14],384 ± 214,> 10000,0,69.7,,
Cc1[nH]c2nc3ccccc3n2c(=O)c1C [Compound 3],3780,> 10000,1,1040,,fold decrease in potency (MRGPRX2 [3]; 3-methyl compared to 3-ethyl (2)): 4 fold
Cc1cc(=O)n2c(n1)oc1ccccc12 [Compound 22],,> 10000,0,,inactive,
"CCCc1cc(=O)n2c(nc3ccccc32)[nH]1 [Compound 6, 2-Propylbenzo[4,5]imidazo[1,2-a]pyrimidin-4(1H)-one]",4790,> 10000,1,4730,,
CCCc1c(C(C)C)[nH]c2nc3ccccc3n2c1=O [Compound 11],166 ± 69.7,> 10000,1,43.3 ± 24.5,,
CCc1c(C(C)C)[nH]c2nc3cc(C)ccc3n2c1=O [Compound 29],29.6 ± 19,> 10000,-2,0.161,subnanomolar potencies,fold improved potency compared to 27 (MRGPRX2 [3]): 40 fold
"CN(C)CCCN1c2ccccc2CCc2ccc(Cl)cc21 [clomipramine, reference compound]",,,,,,"EC80 of agonist, β-arrestin assay (MRGPRX2 [1]): 13000 nM"
CCc1c(C(C)C)[nH]c2nc3cc(Br)c(Br)cc3n2c1=O [Compound 26],289 ± 119,> 10000,-1,13.3,,
CCc1c(C(C)C)[nH]c2nc3nc(F)ccc3n2c1=O [Compound 33],1610,,,906 ± 137,reduced potency dramatically,"half-life at 1 µM ([4]; human, liver microsomes, read-out: T1/2 (half-life)): 48.8 min; microsomal CLint at 1 µM ([4]; read-out: Clint (intrinsic clearance)): 28.4 µL/min/mg"
"CN(C)[C@@H]1CCN(c2cc(-c3ccccc3)nc3ccnn23)C1 [(R)-ZINC-3573, reference compound]",,,,,,"EC80 of agonist, β-arrestin assay (MRGPRX2 [1]): 2000 nM; EC50 (MRGPRX2 [1]; without antagonist, read-out: EC50 of (R)-ZINC-3573, shift assay): 2020 ± 333 nM"
CCc1c(C)n(C)c2nc3ccccc3n2c1=O [Compound 20],,> 10000,1,,not tolerated,
Cc1cc(=O)n2c(nc3ccccc32)[nH]1 [Compound 4],,> 10000,0,,,
Cc1cc(=O)n2c(n1)sc1ccccc12 [Compound 23],,> 10000,-1,,inactive,
CCc1c(C(C)(C)C)[nH]c2nc3ccccc3n2c1=O [Compound 13],113 ± 42.3,> 10000,-1,8.44,,
CCc1c(C(C)C)[nH]c2nc3c(C)cccc3n2c1=O [Compound 31],,> 10000,1,,abolished antagonistic activity,
"O=c1cc[nH]c2nc3ccccc3n12 [Compound 5, benzo[4,5]imidazo[1,2-α]pyrimidin-4(1H)-one]",,> 10000,-1,,,
CCc1c(C)[nH]c2nc3ccccc3n2c1=O [Compound 2],1050,> 10000,-2,238,,

# More lines, main results first:
Ki (MRGPRX2 [1]) [nM],EC50 (MRGPRX2 [2]) [nM],β-Arrestin assay % activation (MRGPRX2 [2]) [%],Ki (MRGPRX2 [3]) [nM],"MRGPRX2 antagonistic potency in Ca2+ assay, in words (MRGPRX2 [3])",SMILES,also measured
69.7 ± 20.8,> 10000,-1,16.6 ± 10.9,,CCCc1[nH]c2nc3ccccc3n2c(=O)c1CCC [Compound 9],
,> 10000,-1,,completely inactive,CSc1cc(C(C)C)nc2nc3ccccc3n12 [Compound 19],
824 ± 553,> 10000,-3,931 ± 685,reduced potency dramatically,CCc1c(C(C)C)[nH]c2nc3ncc(F)cc3n2c1=O [Compound 32],
48.2 ± 1.08,> 10000,-1,1.42,,CC(C)c1cc(=S)n2c(nc3ccccc32)[nH]1 [Compound 18],fold increase in potency compared to 7 (MRGPRX2 [3]): ~3000 fold
175 ± 49.5,> 10000,0,364,,CCc1c(-c2ccccc2)[nH]c2nc3ccccc3n2c1=O [Compound 15],
,> 10000,-3,,,Cc1cc(=S)n2c(nc3ccccc32)[nH]1 [Compound 17],
47.8 ± 9.77,> 10000,-3,0.322,subnanomolar potencies,CCc1c(C(C)C)[nH]c2nc3ccc(C)cc3n2c1=O [Compound 28],fold improved potency compared to 27 (MRGPRX2 [3]): 20 fold
,> 10000,-2,,,CCc1c(-c2cccs2)[nH]c2nc3ccccc3n2c1=O [Compound 16],
90.5 ± 7.03,> 10000,-1,25.8,,CCCc1[nH]c2nc3ccccc3n2c(=O)c1CC [Compound 8],
